Peptide text beside a SMILES is read from it.
Each compound was assayed on MCF-7 cells (assay: Quantitative uptake of FAM-conjugated peptide (flow cytometry)). Settings: FAM-conjugated peptides 1, 5, 10 µM; MCF-7, serum free media, 6 h, 37°C; FACS; duplicate.
Type: in vitro ADME
Procedure: Carboxyfluorescein (FAM)-conjugated peptide was added onto MCF-7 cells with ∼80% confluence in serum free media. Cells were then incubated at 37°C humidified incubator (5% CO2) for 6 h. Cells were washed twice with ice cold PBS containing 1mg/ml heparin, followed by one wash with trypan blue and two washes with ice cold PBS. Cells were trypsinised, followed by centrifugation at 700 g for 5 min at 4°C. Cell pellet was resuspended in ice cold PBS and FACS analysis was done in BD Accuri instrument. 10000 counts per sample was analyzed using BD Accuri C6 software.
As the peptide contains three proline residues, we reasoned that the peptide may have cell penetrating properties. To check the cell penetrating property, we FAM conjugated the peptides and monitored their uptake by flow cytometry.
`CC(C)C[C@H](NC(=O)[C@H](C)N)C(=O)N[C@@H](Cc1c[nH]c2ccccc12)C(=O)N1CCC[C@H]1C(=O)N1CCC[C@H]1C(=O)N[C@@H](CC(N)=O)C(=O)N[C@@H](CC(C)C)C(=O)N[C@@H](Cc1c[nH]cn1)C(=O)N[C@@H](C)C(=O)N[C@@H](Cc1c[nH]c2ccccc12)C(=O)N[C@H](C(=O)N1CCC[C@H]1C(=O)O)C(C)C` [wild-type peptide] (H-ALWPPNLHAWVP-OH) was tested, and the “cell penetrating potential (uptake)” value was “clearly indicated cell penetrating potential”. In the case of LPPAPWNWAHVL [scrambled mutant], the “cell penetrating potential (uptake)” value is reported as “clearly indicated cell penetrating potential”. In the case of PVWAHLNPPWLA [reverse mutant], the “cell penetrating potential (uptake)” value is reported as “clearly indicated cell penetrating potential”.
